Reference: patent US20240285700A1, “COMBINATION OF AN ONCOLYTIC VIRUS, AN ANTI-PD-1 INHIBITOR AND AN ACTIVATOR OF THE INNATE IMMUNE SYSTEM FOR USE IN THE TREATMENT OF PROSTATE CANCER” (priority 2021, published 2024)
“Also recorded” adds a separate entry of the source. Read-outs that look alike come from different tables or passages of the source.

Legend:
lethal virus infection = assay: protection against lethal virus infection in mice; assay type: in vivo; settings: not published
Excerpt: Following advanced experiment on carbohydrate chemistry at the Institute of Wood Chemistry at the University of Uppsala, the inventor was able to provide a water soluble, stimulatory aminated ß(1,3) glucan by treatment of natural, insoluble ß(1,3) with chloroacetaldehyde dimethyl acetal followed by reductive amination (3). The aminated ß(1,3) glucan derivative activated macrophages and thereby protected against otherwise lethal bacterial peritonitis in mice (4), as well as lethal virus infection in mice (not published).

Meth A sarcoma = Meth A sarcoma implanted in the skin of mice, glucan treatment; assay type: in vivo, hybrid CB6 F1 (Balb/c×C 57131/6) mice
Description: Meth A sarcoma was inoculated in the skin of hybrid CB6 F1 (Balb/c×C 57131/6) and grew progressive in immunized animals. […] When 5 mg of pure water-soluble aminated ß(1,3) glucan was injected intravenously or intraperitoneally on day 7, there was an almost immediate visible effect.

sarcoma SA-1 = sarcoma SA-1 in syngeneic mice, glucan treatment; assay type: in vivo, A strain mice
Excerpt: To decide whether the ß(1,3) glucan regression was peculiar to the Meth A tumor, we also performed experiments with sarcoma SA-1, syngeneic in A strain mice.

macrophages = settings: more than forty polysaccharides tested; cited from earlier work
[1] = system: lethal bacterial peritonitis; settings: mice, cited from earlier work

With aminated ß(1,3) glucan the “protection against lethal virus infection” value (lethal virus infection) was “protected”, the “tumor appearance 1 hour after injection” value (Meth A sarcoma; 5 mg intravenously on day 7, saline tumors reddish and bulging) was “collapsed and whitish-grey” and the “histological examination of tumor site” value (Meth A sarcoma; glucan-treated animals) was “acute inflammation around the tumor”. For the same substance, the “effect on tumor in non-immunized animals or treated on day 1, 3” value (Meth A sarcoma; non-immunized animals, or treatment on day 1, 3) was “little or no effect”, the “condition of the animals after 200 days” value (Meth A sarcoma; one injection on day 7) was “unaffected and vital” and the “tumor at day 18-21 after inoculation” value (Meth A sarcoma; one injection on day 7 (5 mg i.v. or i.p.)) was “No visible tumor; also recorded: completely replaced by scar tissue”. For the same substance, the “effect on tumor in TxB animals” value (Meth A sarcoma; thymectomized, x-ray irradiated and bonemarrow transplanted, day 8-14) was “no effect”, the “cases in which tumors reappeared and resumed growth” value (sarcoma SA-1; after 18-21 days) was “about one third” and the “tumor regression compared with Meth A results” value (sarcoma SA-1; sarcoma SA-1, A strain mice) was “essentially identical”. The “ability to stimulate macrophages in vitro” value (macrophages) was “stimulatory”, the “protection against otherwise lethal bacterial peritonitis” value [1] was “protected” and the “protection against otherwise lethal bacterial peritonitis” value ([1]; listed as ß(1,3) glucan) was “sufficient to prevent a lethal outcome”.
